Measured values reported in PubChem BioAssay AID1963434 (Molecular Pharmacology Branch, DTP, NCI, 2024).

Tested on: 755483-174-R-J1-PDC complex spheroid growth, percent test/control
Experiment: Anticancer human tumor 755483-174-R-J1-PDC patient-derived rhabdomyosarcoma cell line growth inhibition [Asc]
Conditions: for IC50: curve of first compound; for viability, T/C: stronger effect = lower value
How it was run: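 Stromal components (HUVEC and hMSC) are co-assembled with the cancer cells into multicellular spheroids. Drugs are then added singly or paired, at concentrations falling by half-log increments from a clinically achievable maximum, capped at 10 microM without known Cmax.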

[1] = second compound 0.01 µM, first compound 0.0316 µM
[2] = second compound 0.01 µM, first compound 0.1 µM
[3] = second compound 0.01 µM, first compound 0.316 µM
[4] = second compound 0.01 µM, first compound 1 µM
[5] = second compound 0.01 µM, first compound 3.16 µM
[6] = second compound 0.01 µM, first compound 10 µM
[7] = second compound 0.0316 µM, first compound 0.0316 µM
[8] = second compound 0.0316 µM, first compound 0.1 µM
[9] = second compound 0.0316 µM, first compound 0.316 µM
[10] = second compound 0.0316 µM, first compound 1 µM
[11] = second compound 0.0316 µM, first compound 3.16 µM
[12] = second compound 0.0316 µM, first compound 10 µM
[13] = second compound 0.1 µM, first compound 0.0316 µM
[14] = second compound 0.1 µM, first compound 0.1 µM
[15] = second compound 0.1 µM, first compound 0.316 µM
[16] = second compound 0.1 µM, first compound 1 µM
[17] = second compound 0.1 µM, first compound 3.16 µM
[18] = second compound 0.1 µM, first compound 10 µM
[19] = second compound 0.316 µM, first compound 0.0316 µM
[20] = second compound 0.316 µM, first compound 0.1 µM
[21] = second compound 0.316 µM, first compound 0.316 µM
[22] = second compound 0.316 µM, first compound 1 µM
[23] = second compound 0.316 µM, first compound 3.16 µM
[24] = second compound 0.316 µM, first compound 10 µM
[25] = second compound 1 µM, first compound 0.0316 µM
[26] = second compound 1 µM, first compound 0.1 µM
[27] = second compound 1 µM, first compound 0.316 µM
[28] = second compound 1 µM, first compound 1 µM
[29] = second compound 1 µM, first compound 3.16 µM
[30] = second compound 1 µM, first compound 10 µM
[31] = second compound 0.01 µM, first compound 0.00949 µM
[32] = second compound 0.01 µM, first compound 0.03 µM
[33] = second compound 0.01 µM, first compound 0.0949 µM
[34] = second compound 0.01 µM, first compound 0.3 µM
[35] = second compound 0.01 µM, first compound 0.949 µM
[36] = second compound 0.01 µM, first compound 3 µM
[37] = second compound 0.0316 µM, first compound 0.00949 µM
[38] = second compound 0.0316 µM, first compound 0.03 µM
[39] = second compound 0.0316 µM, first compound 0.0949 µM
[40] = second compound 0.0316 µM, first compound 0.3 µM
[41] = second compound 0.0316 µM, first compound 0.949 µM
[42] = second compound 0.0316 µM, first compound 3 µM
[43] = second compound 0.1 µM, first compound 0.00949 µM
[44] = second compound 0.1 µM, first compound 0.03 µM
[45] = second compound 0.1 µM, first compound 0.0949 µM
[46] = second compound 0.1 µM, first compound 0.3 µM
[47] = second compound 0.1 µM, first compound 0.949 µM
[48] = second compound 0.1 µM, first compound 3 µM
[49] = second compound 0.316 µM, first compound 0.00949 µM
[50] = second compound 0.316 µM, first compound 0.03 µM
[51] = second compound 0.316 µM, first compound 0.0949 µM
[52] = second compound 0.316 µM, first compound 0.3 µM
[53] = second compound 0.316 µM, first compound 0.949 µM
[54] = second compound 0.316 µM, first compound 3 µM
[55] = second compound 1 µM, first compound 0.00949 µM
[56] = second compound 1 µM, first compound 0.03 µM
[57] = second compound 1 µM, first compound 0.0949 µM
[58] = second compound 1 µM, first compound 0.3 µM
[59] = second compound 1 µM, first compound 0.949 µM
[60] = second compound 1 µM, first compound 3 µM
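Note: spheroids exposed to compounds for seven days before readout.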

## C#Cc1c(F)ccc2cc(O)cc(-c3ncc4c(N5CC6CCC(C5)N6)nc(OCC56CCCN5CC(F)C6)nc4c3F)c12 (stereo not given) + CNC(C)C(=O)NC1CN(S(=O)(=O)c2cccc(S(=O)(=O)N3CCC4CCC(C(=O)NC(c5ccccc5)c5ccccc5)N4C(=O)C(NC(=O)C(C)NC)C3)c2)CCC2CCC(C(=O)NC(c3ccccc3)c3ccccc3)N2C1=O
Second compound 0.01 µM
  IC50: < 31.6 nM
Second compound 0.0316 µM
  IC50: < 31.6 nM
Second compound 0.1 µM
  IC50: < 31.6 nM
Second compound 0.316 µM
  IC50: < 31.6 nM
Second compound 1 µM
  IC50: < 31.6 nM
[1]
  viability, T/C: 46.4%
[2]
  viability, T/C: 44.1%
[3]
  viability, T/C: 55.5%
[4]
  viability, T/C: 54.6%
[5]
  viability, T/C: 36.6%
[6]
  viability, T/C: 2.18%
[7]
  viability, T/C: 33.2%
[8]
  viability, T/C: 36%
[9]
  viability, T/C: 38.7%
[10]
  viability, T/C: 48.3%
[11]
  viability, T/C: 36.4%
[12]
  viability, T/C: 2.06%
[13]
  viability, T/C: 35.9%
[14]
  viability, T/C: 42.6%
[15]
  viability, T/C: 54%
[16]
  viability, T/C: 28.7%
[17]
  viability, T/C: 24.8%
[18]
  viability, T/C: 1.01%
[19]
  viability, T/C: 32.1%
[20]
  viability, T/C: 33.9%
[21]
  viability, T/C: 30.9%
[22]
  viability, T/C: 34.9%
[23]
  viability, T/C: 13.9%
[24]
  viability, T/C: 0.34%
[25]
  viability, T/C: 17.1%
[26]
  viability, T/C: 31.2%
[27]
  viability, T/C: 31.7%
[28]
  viability, T/C: 22.8%
[29]
  viability, T/C: 10.5%
[30]
  viability, T/C: 0.34%

## C=C(F)C(=O)N1CCN(c2nc(OCC3CCCN3C)nc3c2CCN(c2cccc4cccc(Cl)c24)C3)CC1CC#N (stereo not given) + CNC(C)C(=O)NC1CN(S(=O)(=O)c2cccc(S(=O)(=O)N3CCC4CCC(C(=O)NC(c5ccccc5)c5ccccc5)N4C(=O)C(NC(=O)C(C)NC)C3)c2)CCC2CCC(C(=O)NC(c3ccccc3)c3ccccc3)N2C1=O
Second compound 0.01 µM
  IC50: 585 nM
Second compound 0.0316 µM
  IC50: 336 nM
Second compound 0.1 µM
  IC50: 428 nM
Second compound 0.316 µM
  IC50: < 31.6 nM
Second compound 1 µM
  IC50: < 31.6 nM
[1]
  viability, T/C: 68.4%
[2]
  viability, T/C: 62%
[3]
  viability, T/C: 58.9%
[4]
  viability, T/C: 40.6%
[5]
  viability, T/C: 3.47%
[6]
  viability, T/C: 0.12%
[7]
  viability, T/C: 48.5%
[8]
  viability, T/C: 56.7%
[9]
  viability, T/C: 50.1%
[10]
  viability, T/C: 32%
[11]
  viability, T/C: 2.46%
[12]
  viability, T/C: 0.12%
[13]
  viability, T/C: 40%
[14]
  viability, T/C: 63.9%
[15]
  viability, T/C: 66.2%
[16]
  viability, T/C: 31.1%
[17]
  viability, T/C: 17.1%
[18]
  viability, T/C: 0.12%
[19]
  viability, T/C: 26.6%
[20]
  viability, T/C: 30.6%
[21]
  viability, T/C: 38.7%
[22]
  viability, T/C: 23.3%
[23]
  viability, T/C: 2.01%
[24]
  viability, T/C: 0.12%
[25]
  viability, T/C: 29.7%
[26]
  viability, T/C: 34.6%
[27]
  viability, T/C: 21.6%
[28]
  viability, T/C: 13.1%
[29]
  viability, T/C: 0.83%
[30]
  viability, T/C: 0.19%

## CCN1C(C(=O)NC23CCC(C(=O)O)(CC2)CC3)C(c2cccc(Cl)c2F)C2(C(=O)Nc3cc(Cl)ccc32)C12CCCCC2 (stereo not given) + CNC(C)C(=O)NC1CN(S(=O)(=O)c2cccc(S(=O)(=O)N3CCC4CCC(C(=O)NC(c5ccccc5)c5ccccc5)N4C(=O)C(NC(=O)C(C)NC)C3)c2)CCC2CCC(C(=O)NC(c3ccccc3)c3ccccc3)N2C1=O
Second compound 0.01 µM
  IC50: 148 nM
Second compound 0.0316 µM
  IC50: < 9.49 nM
Second compound 0.1 µM
  IC50: < 9.49 nM
Second compound 0.316 µM
  IC50: < 9.49 nM
Second compound 1 µM
  IC50: < 9.49 nM
[31]
  viability, T/C: 56.2%
[32]
  viability, T/C: 73.9%
[33]
  viability, T/C: 55%
[34]
  viability, T/C: 39.3%
[35]
  viability, T/C: 48.2%
[36]
  viability, T/C: 38.6%
[37]
  viability, T/C: 38.6%
[38]
  viability, T/C: 45.8%
[39]
  viability, T/C: 50%
[40]
  viability, T/C: 49.2%
[41]
  viability, T/C: 44.2%
[42]
  viability, T/C: 28.9%
[43]
  viability, T/C: 27.9%
[44]
  viability, T/C: 23.6%
[45]
  viability, T/C: 39.4%
[46]
  viability, T/C: 28.9%
[47]
  viability, T/C: 32.6%
[48]
  viability, T/C: 24.4%
[49]
  viability, T/C: 19.9%
[50]
  viability, T/C: 26.2%
[51]
  viability, T/C: 40%
[52]
  viability, T/C: 37.9%
[53]
  viability, T/C: 23.5%
[54]
  viability, T/C: 27%
[55]
  viability, T/C: 23.5%
[56]
  viability, T/C: 23.1%
[57]
  viability, T/C: 18.1%
[58]
  viability, T/C: 23.1%
[59]
  viability, T/C: 21.5%
[60]
  viability, T/C: 34.4%

## Cc1nc(N2CCC3(CC2)COC(C)C3N)c(CO)nc1Sc1ccnc(N)c1Cl (stereo not given) + CNC(C)C(=O)NC1CN(S(=O)(=O)c2cccc(S(=O)(=O)N3CCC4CCC(C(=O)NC(c5ccccc5)c5ccccc5)N4C(=O)C(NC(=O)C(C)NC)C3)c2)CCC2CCC(C(=O)NC(c3ccccc3)c3ccccc3)N2C1=O
Second compound 0.01 µM
  IC50: 103 nM
Second compound 0.0316 µM
  IC50: < 9.49 nM
Second compound 0.1 µM
  IC50: < 9.49 nM
Second compound 0.316 µM
  IC50: < 9.49 nM
Second compound 1 µM
  IC50: < 9.49 nM
[31]
  viability, T/C: 46.1%
[32]
  viability, T/C: 57.3%
[33]
  viability, T/C: 50.5%
[34]
  viability, T/C: 35.6%
[35]
  viability, T/C: 23%
[36]
  viability, T/C: 24.7%
[37]
  viability, T/C: 41.4%
[38]
  viability, T/C: 45.6%
[39]
  viability, T/C: 40.8%
[40]
  viability, T/C: 32.7%
[41]
  viability, T/C: 23.2%
[42]
  viability, T/C: 18.2%
[43]
  viability, T/C: 26.6%
[44]
  viability, T/C: 45.9%
[45]
  viability, T/C: 20.3%
[46]
  viability, T/C: 29.9%
[47]
  viability, T/C: 30.1%
[48]
  viability, T/C: 18.5%
[49]
  viability, T/C: 50.1%
[50]
  viability, T/C: 32%
[51]
  viability, T/C: 22.1%
[52]
  viability, T/C: 24.7%
[53]
  viability, T/C: 23.5%
[54]
  viability, T/C: 11.4%
[55]
  viability, T/C: 17.1%
[56]
  viability, T/C: 16.9%
[57]
  viability, T/C: 21.7%
[58]
  viability, T/C: 24.9%
[59]
  viability, T/C: 19.1%
[60]
  viability, T/C: 12.2%
